Paper PMC10747602, “Dose Response, Dosimetric, and Metabolic Evaluations of Replacement PFAS Perfluoro-(2,5,8-trimethyl-3,6,9-trioxadodecanoic) Acid (HFPO-TeA)” (Toxics, 2023)
Values joined by “and” are separate entries in the source; they are usually repeats but may differ in a detail not shown here. Identical values can stand only once.

How the values were obtained:
[1] = Hepatocyte metabolic stability (clearance) assay, rat hepatocytes; conditions: both, Sprague Dawley, rat, hepatocytes
Procedure: (§1) Information on the chemicals and materials used in the hepatocyte metabolic work can be found in Supplementary Text S9 and Table S3. In vitro evaluations of hepatocyte metabolic stability were performed in human and rat hepatocytes, as previously described. Briefly, pooled, cryopreserved hepatocyte suspensions were thawed, assessed for viability, and then diluted in William’s medium E containing dexamethasone and cell maintenance cocktail B to achieve a cell density of 50,000 cells/100 µL. The assay was started by adding hepatocyte suspensions to wells of 96-well polypropylene plates containing an equal volume of media with 2 µM of analyte (final assay concentration: 1 µM). Plates were placed in a 37 °C cell culture incubator (5% CO2) on a shaker set to 200 rpm. Time points assessed were T0, T15, T30, T60, T120, and T240 min. At each time point, the plates were removed from the shaker and the incubates were crashed with an equal volume of ice-cold ACN containing 1.2% FA and 16 ng/mL of ^13C3 -HFPO-DA. After chilling and centrifugation at 4122× g, the supernatants were transferred to new collection plates and stored at −70 °C until analysis for the parent compound on the Waters instrumentation described below. Immediately prior to analysis, samples were thawed, vortexed, and centrifuged at 4200× g, and then diluted 1:4 in 95:5 H2O/ACN with 2.5 mM of ammonium acetate. Negative controls, including no cell controls and metabolically inactivated hepatocytes, were run concurrently to assess the chemical stability over the time course.
(§2) Intrinsic clearance (Clint; hepatic clearance) calculations are detailed in Supplementary Text S9 [57].
(§3) Targeted, quantitative analysis of in vitro hepatocyte metabolic stability and plasma protein binding assay samples was conducted on a Waters Xevo-TQS micro mass spectrometer (Waters, Milford, MA, USA) ultra-high-performance liquid chromatography tandem mass spectrometry system (UPLC-MS/MS), modified with a PFAS analysis kit. Samples were analyzed in negative ion mode with UniSpray ionization. A CORTECS T3 column (Waters CORTECS, 3 × 100 mm, particle size 2.7 µm) was used for chromatographic separation with a flow rate of 0.6 mL/min and a temperature of 55 °C. Gradient elution was used with eluent A (95:5 H2O/ACN) and eluent B (95:5 ACN/H2O) with 2.5 mM of ammonium acetate. The gradient is available in Table S11. Additional details for MS parameters are found in Table S12 and monitored transitions are found in Table S13.
(§4) Table S2: Data processing parameters used with Sciex MarkerView 1.3.1.
(§5) Support ing Text S9: Hepatocyte Metabolic Stability Assay Materials, Chemicals, and Calculations
(§6) Pooled human and rat cryopreserved primary hepatocyte suspensions were both obtained from
(§7) BioIVT, a US Food and Drug Administration-licensed and inspected donor center, and produced using
(§8) non-transplantable tissue.
(§9) William’s E media, dexamet hasone (98% pure), and cell maintenance cocktail B were obtained from
(§10) Thermo Fisher Scientific (Waltham, MA, USA), the OptiThaw hepatocyte kit from Sekisui/Xenotech
(§11) (Tokyo, Japan), and the trypan blue s (Sekisui/ Xenotech, Tokyo, Japan) and the trypan blue solution from […]

[2] = Hepatocyte metabolic stability (clearance) assay, human hepatocytes; conditions: human, hepatocytes, 1000 nM
Procedure: as §1, §2, §3, §4, §5, §6, §7, §8, §9, §10, §11

[3] = Ultracentrifugation plasma protein binding assay, human plasma; type: in vitro ADME; conditions: both sexes, human
Procedure: (§12) Information on the chemicals and materials used in the plasma protein binding work can be found in Supplementary Text S10 and Table S3. Human and rodent plasma were evaluated for plasma protein binding using ultracentrifugation, as previously described. Working solutions of 3 mM of HFPO-DA, HFPO-TA, and HFPO-TeA were prepared separately in ethanol, with each working solution containing 3 mM of testosterone (Sigma-Aldrich; ≥98% pure) as a reference compound for assay performance. An aliquot of each stock solution (13.3 µL) was added to separate 15 mL tubes with 3.987 mL of plasma for a final assay concentration of 10 µM. The plasma solutions were incubated at 37 °C and 125 rpm for 60 min. One-hour stability samples (T60 min) were drawn in triplicate and diluted in four volumes of plasma ultrafiltrate. Aliquots (1 mL) from each plasma solution were drawn in triplicate and transferred to polycarbonate tubing. These samples underwent ultracentrifugation (Beckman OptimaMax; Beckman Coulter Inc., Brea, CA, USA) at 850,000× g for 4 h at 37 °C.
(§13) The remaining plasma solutions were returned for incubation at 37 °C and 125 rpm for an additional 4 h. Five-hour stability samples (T300 min) were then drawn in triplicate and diluted in four volumes of plasma ultrafiltrate. After ultracentrifugation, the aqueous fraction (AF) was collected by transferring the supernatant to a new tube and diluting in an equal volume of plasma for matrix matching. All samples were combined with 3 volumes of ice-cold ACN containing 16 ng/mL of ^13C3-HFPO-DA and 16 ng/mL of ^13C-Testosterone (Cambridge Isotope Laboratories; 98% pure). Samples were vigorously mixed, stored for 10 min at −20 °C, and then centrifuged at 12,000× g for 10 min at 4 °C. Supernatants were collected then stored at −70 °C prior to analysis.
(§14) Fraction unbound (fu) in plasma (fup) and percent stability calculations are detailed in Supplementary Text S10. Hepatic clearance, the fu in blood (fub) (fu in plasma adjusted for blood:plasma partitioning), and renal clearance were used to derive the steady-state concentration (Css) of each compound that will be used for in vitro–in vivo extrapolation (IVIVE). Renal clearance was calculated using the glomerular filtration rate (a species-dependent constant) and the fub. The Css calculation is detailed in Supplementary Text S11.
(§15) The gradient is available in Table S11. […]
(§16) Chemical stability in plasma was assessed
(§17) (F) Percent Stability = T300minutesT60minutes∗100

Human plasma = test: as above; type: in vitro ADME; conditions: for Experimental fup (average fraction unbound in plasma): 10 µM, ultracentrifugation; for Average Stability (T5hr/ T1hr) / Aqueous Fraction concentration / Fraction Unbound in plasma (fup) / Stability (T5hr/ T1hr) / Time 1 hr concentration / Time 5 hr concentration: 10000 nM; for Average Stability (T5hr/ T1hr): 37 °C; for Aqueous Fraction concentration: after ultracentrifugation; for Aqueous Fraction concentration / Fraction Unbound in plasma (fup) / Stability (T5hr/ T1hr) / Time 1 hr concentration / Time 5 hr concentration: replicates A-C
Procedure: as §12, §13, §14, §15, §16, §17

[4] = test system: Sprague Dawley rodent plasma; test: Ultracentrifugation plasma protein binding assay, rat plasma; type: in vitro ADME; conditions: rat plasma, 10000 nM
Procedure: as §12, §13, §14, §15, §16, §17

[5] = as above; type: in vitro ADME; conditions: both sexes, Sprague Dawley, rat, rat plasma, 10000 nM
Procedure: as §12, §13, §14, §15, §16, §17

CC(C)NCC(O)COc1cccc2ccccc12 (stereo not shown) [Propranolol, reference compound]
half-life at 1000 nM [1]: 0.261 h | half-life at 1 µM ([2]; HT-Background Half Life, heat treated human hepatocytes): 12.3 h | half-life at 1 µM ([2]; Half Life, human hepatocytes, time in min): 1.63 h

C[C@]12CC[C@H]3[C@@H](CCC4=CC(=O)CC[C@@]43C)[C@@H]1CC[C@@H]2O [Testosterone]
fraction unbound at 4 h, 10 µM ([3]; plasma, 10 µM, ultracentrifugation, read-out: Experimental fup (average fraction unbound in plasma)): 0.048 | fraction unbound at 4 h, 10 µM ([3]; pooled human plasma, 10000 nM, replicates A-C, read-out: Fraction Unbound in plasma (fup)): 0.0537 | Experimental fup (average fraction unbound in plasma) (Human plasma): 0.0417 | Experimental fup (average fraction unbound in plasma) (Human plasma; listed as Tesosterone): 0.0359 | Average Stability (T5hr/ T1hr) (Human plasma): 1.1059 and 0.9812 | Average Stability (T5hr/ T1hr) (Human plasma; listed as Tesosterone): 1.0002 | Aqueous Fraction concentration (Human plasma): 546.88 nM and 521.28 nM and 574.4 nM and 376.32 nM and 357.12 nM and 381.76 nM | Aqueous Fraction concentration (Human plasma; listed as Tesosterone): 293.12 nM and 277.12 nM and 292.16 nM | Fraction Unbound in plasma (fup) (Human plasma): 0.0442 and 0.0462 and 0.0429 and 0.0406 and 0.0415 | Stability (T5hr/ T1hr) (Human plasma): 0.9564 and 1.2770 and 1.0843 and 0.9797 and 0.9599 and 1.0039 | Time 1 hr concentration (Human plasma): 10.6456 µM and 9.2344 µM and 11.4704 µM and 8.9504 µM and 9.1664 µM and 9.1736 µM | Time 5 hr concentration (Human plasma): 10.1816 µM and 11.792 µM and 12.4368 µM and 8.7688 µM and 8.7984 µM and 9.2096 µM | Fraction Unbound in plasma (fup) (Human plasma; listed as Tesosterone): 0.0369 and 0.0320 and 0.0386 | Stability (T5hr/ T1hr) (Human plasma; listed as Tesosterone): 0.9569 and 1.1423 and 0.9014 | Time 1 hr concentration (Human plasma; listed as Tesosterone): 8.3008 µM and 7.576 µM and 8.3888 µM | Time 5 hr concentration (Human plasma; listed as Tesosterone): 7.9432 µM and 8.6544 µM and 7.5616 µM | Average Stability (T5hr/ T1hr) [4]: 1.0825 and 0.9487 and 1.0344 | Aqueous Fraction, Rep A ([4]; Rep A): 659.2 nM and 463 nM and 481 nM | Fraction Unbound in plasma (fup), Rep A ([4]; Rep A): 0.05346 and 0.05095 | Stability (T5hr/ T1hr), Rep A ([4]; Rep A): 1.0325 and 0.8708 and 1.0149 | Time 1 hr concentration, Rep A ([4]; Rep A): 11.552 µM and 9.9536 µM and 9.3008 µM | Time 5 hr concentration, Rep A ([4]; Rep A): 11.928 µM and 8.6672 µM and 9.4392 µM | Aqueous Fraction, Rep B ([4]; Rep B): 678.4 nM and 491 nM and 472 nM | Fraction Unbound in plasma (fup), Rep B ([4]; Rep B): 0.0545 | Stability (T5hr/ T1hr), Rep B ([4]; Rep B): 1.1304 and 0.9004 | Time 1 hr concentration, Rep B ([4]; Rep B): 10.184 µM and 10.0112 µM and 8.783 µM | Time 5 hr concentration, Rep B ([4]; Rep B): 11.512 µM and 9.0136 µM | Aqueous Fraction, Rep C ([4]; Rep C): 681.6 nM and 481.28 nM and 439 nM | Fraction Unbound in plasma (fup), Rep C ([4]; Rep C): 0.04493 and 0.05209 | Stability (T5hr/ T1hr), Rep C ([4]; Rep C): 1.0845 and 1.0750 and 1.0540 | Time 1 hr concentration, Rep C ([4]; Rep C): 12.408 µM and 9.964 µM and 7.99 µM | Time 5 hr concentration, Rep C ([4]; Rep C): 13.456 µM and 10.7112 µM and 8.4216 µM | Average fup (fraction unbound in plasma) ([4]; ultracentrifugation): 0.0510 and 0.0515 | fraction unbound at 4 h, 10 µM ([5]; Rep A, read-out: Fraction Unbound in plasma (fup), Rep A): 0.0553 | fraction unbound at 4 h, 10 µM ([5]; Rep B, read-out: Fraction Unbound in plasma (fup), Rep B): 0.0589 | fraction unbound at 4 h, 10 µM ([5]; Rep C, read-out: Fraction Unbound in plasma (fup), Rep C): 0.0507 | fraction unbound at 4 h, 10 µM ([5]; ultracentrifugation, read-out: Average fup (fraction unbound in plasma)): 0.0549
